Assay [1] deals with Akt phosphorylation (pAkt, S473). Kind of assay: Akt phosphorylation by Western blotting in differentiated C2C12 cells. Conditions: peptides 100 µM, insulin 100 nM, Western blot, three independent experiments. It is filed as cell-based, mouse. On the procedure:
C2C12 cells were used as a well-described model of skeletal muscle to evaluate the effect of peptides in gene expression, cell signaling, and glucose uptake. These cells were kindly provided by Prof. Patricia Brum, School of Physical Education and Prof. Anselmo Moriscot, Biomedical Science Institute, University of São Paulo, São Paulo, Brazil. C2C12 cells were cultured and maintained in high glucose Dulbecco’s modified Eagle’s medium (DMEM; Thermo Fisher Scientific, São Paulo, SP, Brazil) supplemented with 10% fetal bovine serum (FBS), 100 U/mL penicillin, and […] streptomycin in a humidified atmosphere of 5% CO2 at 37 °C. The cells were used in low pass (between passages 2 and 4) for all experiments to maintain the potential for differentiation of cultures. […]
Western blotting experiments were performed to evaluate the expression levels of specific proteins. […] Western blot bands were visualized with Super-Signal West Pico Chemiluminescent substrate (Thermo Scientific) using the ChemiDoc™ MP Imaging System (BioRad, Hercules, CA, USA), and quantified using ImageJ 1.49 software. All results are expressed as the means ± standard error of the mean (SEM). […] Data were statistically analyzed with GraphPad Prism software (GraphPad Software Inc, San Diego, CA, USA). […]

The test system of assay [2] is differentiated C2C12 cells. Kind of assay: Glucose uptake in C2C12 myotubes. It is filed as cell-based, mouse. Conditions: peptides 100 µM, insulin 100 nM; 30 min, 37 °C; 3H-glucose (1 µCi/mL) or 2-NBDG (80 µM).

Turning to Insulin, in assay [1], the “phosphorylation of Akt (pAkt over total Akt)” value is “increased”. The “glucose uptake in differentiated C2C12 cells” value in assay [2] is recorded as “stimulate glucose uptake”.
On to “LASVSTVLTSKYR [Ric4, intracellular peptide derived from hemoglobin alpha subunit, last 13 C-terminal amino acids]”, for which, in assay [1], the “phosphorylation of Akt (pAkt over total Akt)” value is listed as “activated”. Further, the “glucose uptake in differentiated C2C12 cells” value in assay [2] was “stimulate glucose uptake”.

Values taken from paper PMC8708875 (Pharmaceutics, 2021).
